Experiments:
Type in all cases: cell-based
Conditions in all cases: human umbilical vascular endothelial cells, 10 μM, 8 hours, untreated cells as control
eNOS gene = eNOS gene expression in cultured vascular endothelial cells (quantitative PCR)
Excerpt: (§1) With respect to the compounds of Formula (II) and Formula (III) synthesized and purified in Example 1, the effect of them on expression of a gene involved in the vascular endothelial function was studied. Furthermore, as compounds for comparison, an EGCG monomer (manufactured by Wako Pure Chemical Industries Ltd.), theaflavin, theaflavin 3-O-gallate, theaflavin 3′-O-gallate and theaflavin 3,3′-O-digallate (manufactured by Nagara Science Co., Ltd.), which are known to have a vascular endothelial function improving action.
(§2) These compounds were dissolved in sterilized dimethyl sulfoxide (DMSO, manufactured by Nacalai Tesque Inc.) to prepare a solution having a concentration of 10 mM.
(§3) These solutions were diluted 1000 fold by using HuMedia-EG2 medium (manufactured by Kurabo Industries Ltd.) to prepare a solution having a final concentration of 10 μM (the final concentration of DMSO was 0.1 V/V %). These sample solutions each were added to human umbilical vascular endothelial cells (manufactured by Kurabo Industries Ltd.) cultured in a 6-well plate in a proportion of 3 mL/well and incubated at 37° C. under 5% CO2 conditions for 8 hours.
(§4) The cells were recovered by ISOGEN (manufactured by Nippon Gene Co., Ltd.) and RNA was extracted from the cells. Furthermore, RNA was purified by RNeasy Mini Kit (QIAGEN). cDNA was synthesized by a High-Capacity cDNA reverse transcription kit (manufactured by Applied Biosystem) using the total RNA (200 ng) purified as a template and quantitative PCR was performed. Analysis was performed by comparative Ct method with a glyceraldehyde-3-phosphate dehydrogenase gene used as an internal standard. The gene expression change ratio (ratio relative to the control) of a test sample was calculated by using untreated cells as a control.

DDAH2 gene = DDAH2 gene expression in cultured vascular endothelial cells (quantitative PCR)
Excerpt: as §1, §2, §3, §4

[1] = tested on: Nox4 subunit gene of NADPH oxidase; test: Expression of Nox4 subunit gene of NADPH oxidase in cultured vascular endothelial cells (quantitative PCR)
Excerpt: as §1, §2, §3, §4

GTP-CH1 gene = GTP-CH1 gene expression in cultured vascular endothelial cells (quantitative PCR)
Excerpt: as §1, §2, §3, §4

O=C(OC1Cc2c(O)cc(O)c(Cc3c(O)cc(O)c4c3OC(c3cc(O)c(O)c(O)c3)C(OC(=O)c3cc(O)c(O)c(O)c3)C4)c2OC1c1cc(O)c(O)c(O)c1)c1cc(O)c(O)c(O)c1 (centres unmarked) [oolong homobisflavan-A, oolong homobisflavan A]
do not substantially change: expression of the eNOS gene (gene expression change ratio relative to the control) (eNOS gene) | expression of the DDAH2 gene (gene expression change ratio relative to the control) (DDAH2 gene) | expression of Nox4 subunit gene of NADPH oxidase (gene expression change ratio relative to the control) [1] | expression of the GTP-CH1 gene (gene expression change ratio relative to the control) (GTP-CH1 gene)

O=C(OC1Cc2c(cc(O)c(Cc3c(O)cc(O)c4c3OC(c3cc(O)c(O)c(O)c3)C(OC(=O)c3cc(O)c(O)c(O)c3)C4)c2O)OC1c1cc(O)c(O)c(O)c1)c1cc(O)c(O)c(O)c1 (centres unmarked) [oolong homobisflavan-B]
do not substantially change: expression of the eNOS gene (gene expression change ratio relative to the control) (eNOS gene) | expression of the DDAH2 gene (gene expression change ratio relative to the control) (DDAH2 gene) | expression of Nox4 subunit gene of NADPH oxidase (gene expression change ratio relative to the control) [1] | expression of the GTP-CH1 gene (gene expression change ratio relative to the control) (GTP-CH1 gene)

O=C(O[C@@H]1Cc2c(cc(O)c(Cc3c(O)cc4c(c3O)C[C@@H](OC(=O)c3cc(O)c(O)c(O)c3)[C@@H](c3cc(O)c(O)c(O)c3)O4)c2O)O[C@@H]1c1cc(O)c(O)c(O)c1)c1cc(O)c(O)c(O)c1 [oolong homobisflavan-C]
do not substantially change: expression of the eNOS gene (gene expression change ratio relative to the control) (eNOS gene) | expression of the DDAH2 gene (gene expression change ratio relative to the control) (DDAH2 gene) | expression of Nox4 subunit gene of NADPH oxidase (gene expression change ratio relative to the control) [1] | expression of the GTP-CH1 gene (gene expression change ratio relative to the control) (GTP-CH1 gene)

O=C(O[C@@H]1Cc2c(O)cc(O)cc2O[C@@H]1c1cc(O)c(O)c(O)c1-c1c([C@H]2Oc3cc(O)cc(O)c3C[C@H]2OC(=O)c2cc(O)c(O)c(O)c2)cc(O)c(O)c1O)c1cc(O)c(O)c(O)c1 [theasinensin A]
do not substantially change: expression of the eNOS gene (gene expression change ratio relative to the control) (eNOS gene) | expression of the DDAH2 gene (gene expression change ratio relative to the control) (DDAH2 gene) | expression of Nox4 subunit gene of NADPH oxidase (gene expression change ratio relative to the control) [1] | expression of the GTP-CH1 gene (gene expression change ratio relative to the control) (GTP-CH1 gene)

(−)-epigallocatechin-3-O-gallate [EGCG monomer]
do not substantially change: expression of the eNOS gene (gene expression change ratio relative to the control) (eNOS gene) | expression of the DDAH2 gene (gene expression change ratio relative to the control) (DDAH2 gene) | expression of Nox4 subunit gene of NADPH oxidase (gene expression change ratio relative to the control) [1] | expression of the GTP-CH1 gene (gene expression change ratio relative to the control) (GTP-CH1 gene)
